This is an account of results in patent publication US20170210738A1, “GLUCOSE TRANSPORT INHIBITORS” (Bayer Pharma Aktiengesellschaft, priority 2014, published 2017).

The structures appear in SMILES notation.

Broadly, the IC50 is the concentration that inhibits the measured activity by half.

The assay concerns the target T1, GLUT1 (Homo sapiens, UniProt P11166).
T1 construct: endogenous in cells; host or cells: DLD1 or CHO-K1
T1 sequence (P11166 1-492): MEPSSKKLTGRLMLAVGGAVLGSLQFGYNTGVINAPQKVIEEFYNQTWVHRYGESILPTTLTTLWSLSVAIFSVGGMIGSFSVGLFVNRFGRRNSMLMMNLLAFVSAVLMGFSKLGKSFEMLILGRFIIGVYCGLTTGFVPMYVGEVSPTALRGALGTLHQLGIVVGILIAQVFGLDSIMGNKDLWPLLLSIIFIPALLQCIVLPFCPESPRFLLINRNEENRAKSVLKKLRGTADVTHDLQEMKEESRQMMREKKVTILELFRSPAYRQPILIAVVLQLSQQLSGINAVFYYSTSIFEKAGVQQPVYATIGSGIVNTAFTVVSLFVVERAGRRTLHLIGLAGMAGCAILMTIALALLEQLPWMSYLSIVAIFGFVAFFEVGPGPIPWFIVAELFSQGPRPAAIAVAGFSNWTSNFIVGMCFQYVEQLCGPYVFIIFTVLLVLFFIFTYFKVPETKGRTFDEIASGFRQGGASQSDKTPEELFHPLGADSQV
Description: Indirect measurement of GLUT activity by quantification of intracellular ATP levels: glucose induced ATP increase (GLUT1 inhibition). The format is cell-based. The settings on record: DLD1 cells; 1 mM glucose, 1 uM Rotenone, 15 min; CellTiter-Glo ATP levels; IC50 values standardized to cytochalasin B IC50 values; read-out: IC50 regarding glucose induced ATP increase (GLUT1 inhibition). From the text:
Indirect Measurement of GLUT Activity by Quantification of Intracellular ATP Levels
It is well known that a combination of small-molecule inhibitors of mitochondrial electron transport chain and glucose catabolism synergistically suppress ATP production and impair cellular viability (Ulanovskaya et al., 2008, 2011; Liu, et al. 2001). We therefore used DLD1 or CHO-K1 cells in combination with an oxidative phosphorylation inhibitor to identify GLUT inhibitors. Cell lines were maintained in DMEM medium supplemented with 10% FCS and 1% Penicillin-Streptomycin solution and 2% Glutamax. The cells were treated with trypsin and seeded into 384 plates at a density of 4000 cells/well. The cells were then cultured overnight in glucose free media containing 1% FCS to reduce intracellular ATP levels. After 24 h the cells were incubated at 37° C. containing the appropriate glucose or in case of GLUT2 fructose concentration (1 mM and 30 mM respectively) with or without compounds and 1 uM Rotenone for 15 min. The CellTiter-Glo® Luminescent Cell Viability Assay from Promega was then used to measure ATP levels. Compounds able to reduce the ATP levels within 15 min of glucose application were considered to be glucose uptake inhibitors.
Background: Cellular ATP, detected with luciferase, serves as a proxy for viable cell number.
On to `Cc1cc(Cn2ncc(NC(=O)c3cc(C(F)(F)F)nc4ccc(Br)cc34)c2C)no1` [Example 42, 6-bromo-N-{5-methyl-1-[(5-methyl-1,2-oxazol-3-yl)methyl]-1H-pyrazol-4-yl}-2-(trifluoromethyl)quinoline-4-carboxamide], for which the IC50 was determined as 1130 nM. As to `Cc1c(NC(=O)c2cc(C(N)=O)nc3ccccc23)cnn1CC1CCCCC1` [Example 28, N^4-[1-(cyclohexylmethyl)-5-methyl-1H-pyrazol-4-yl]quinoline-2,4-dicarboxamide], the IC50 stood at 349 nM. As to `Cc1c(NC(=O)c2cc(C(F)(F)F)nc3ccc(Br)cc23)cnn1Cc1ccc(F)cc1` [Example 4, 6-bromo-N-[1-(4-fluorobenzyl)-5-methyl-1H-pyrazol-4-yl]-2-(trifluoromethyl)quinoline-4-carboxamide], the IC50 worked out at 12 nM. With `Cc1c(NC(=O)c2cc(C3CC3)nc3ccc(Br)cc23)cnn1Cc1ccc(C#N)cc1` [Example 23, 6-bromo-N-[1-(4-cyanobenzyl)-5-methyl-1H-pyrazol-4-yl]-2-cyclopropylquinoline-4-carboxamide], the IC50 was 2.9 nM. As for `Cc1nc(Cn2ncc(NC(=O)c3cc(C(F)(F)F)nc4ccc(Br)cc34)c2C)cs1` [Example 41, 6-bromo-N-{5-methyl-1-[(2-methyl-1,3-thiazol-4-yl)methyl]-1H-pyrazol-4-yl}-2-(trifluoromethyl)quinoline-4-carboxamide], the IC50 is 284 nM. With `Cc1c(NC(=O)c2cc(C(N)=O)nc3ccccc23)cnn1Cc1ccc(F)cc1` [Example 5, N^4-[1-(4-fluorobenzyl)-5-methyl-1H-pyrazol-4-yl]quinoline-2,4-dicarboxamide], the IC50 was found to be 18 nM. Next, `Cc1c(NC(=O)c2cc(C(F)(F)F)nc3ccc(Br)cc23)cnn1Cc1ccc(C#N)cc1` [Example 8, 6-bromo-N-[1-(4-cyanobenzyl)-5-methyl-1H-pyrazol-4-yl]-2-(trifluoromethyl)quinoline-4-carboxamide]: 12 nM. With `CCc1c(NC(=O)c2cc(C(N)=O)nc3ccccc23)cnn1Cc1ccc(C#N)cc1` [Example 31, N^4-[1-(4-cyanobenzyl)-5-ethyl-1H-pyrazol-4-yl]quinoline-2,4-dicarboxamide], the IC50 stood at 201 nM. Consider `Cc1c(NC(=O)c2cc(C(N)=O)nc3ccccc23)cnn1Cc1ccc(F)c(F)c1` [Example 26, N^4-[1-(3,4-difluorobenzyl)-5-methyl-1H-pyrazol-4-yl]quinoline-2,4-dicarboxamide], for which the IC50 amounted to 95 nM.

As to `Cc1c(NC(=O)c2cc(C3CC3)nc3ccc(F)cc23)cnn1Cc1ccc(F)cc1` [Example 6, 2-cyclopropyl-6-fluoro-N-[1-(4-fluorobenzyl)-5-methyl-1H-pyrazol-4-yl]quinoline-4-carboxamide], the IC50 amounted to 91 nM. Next, `CNC(=O)c1nc(Cn2ncc(NC(=O)c3cc(C(N)=O)nc4ccccc34)c2C)no1` [Example 36, N^4-(5-methyl-1-{[5-(methylcarbamoyl)-1,2,4-oxadiazol-3-yl]methyl}-1H-pyrazol-4-yl)quinoline-2,4-dicarboxamide]: 2220 nM; `Cc1c(NC(=O)c2cc(C(N)=O)nc3ccccc23)cnn1Cc1ccc(C#N)cc1` [Example 9, N^4-[1-(4-cyanobenzyl)-5-methyl-1H-pyrazol-4-yl]quinoline-2,4-dicarboxamide]: 8.9 nM; `Cc1c(NC(=O)c2cc(C(F)(F)F)nc3c(Cl)cc(Cl)cc23)cnn1Cc1ccc(F)cc1` [Example 7, 6,8-dichloro-N-[1-(4-fluorobenzyl)-5-methyl-1H-pyrazol-4-yl]-2-(trifluoromethyl)quinoline-4-carboxamide]: 185 nM. Next, `N#Cc1ccc(Cn2ncc(NC(=O)c3cc(C(F)(F)F)nc4ccc(Br)cc34)c2C(=O)O)cc1` [Example 20, 4-({[6-bromo-2-(trifluoromethyl)quinolin-4-yl]carbonyl}amino)-1-(4-cyanobenzyl)-1H-pyrazole-5-carboxylic acid]: 10200 nM; `Cc1c(NC(=O)c2cc(C(F)(F)F)nc3ccc(Br)cc23)cnn1Cc1ccccc1C#N` [Example 14, 6-bromo-N-[1-(2-cyanobenzyl)-5-methyl-1H-pyrazol-4-yl]-2-(trifluoromethyl)quinoline-4-carboxamide]: 173 nM; `CCc1noc(Cn2ncc(NC(=O)c3cc(C(F)(F)F)nc4ccc(Br)cc34)c2C)n1` [Example 35, 6-bromo-N-{1-[(3-ethyl-1,2,4-oxadiazol-5-yl)methyl]-5-methyl-1H-pyrazol-4-yl}-2-(trifluoromethyl)quinoline-4-carboxamide]: 1200 nM. On to `Cc1c(NC(=O)c2cc(C(N)=O)nc3ccccc23)cnn1Cc1ccn(C)n1` [Example 34, N^4-{5-methyl-1-[(1-methyl-1H-pyrazol-3-yl)methyl]-1H-pyrazol-4-yl}quinoline-2,4-dicarboxamide], for which the IC50 amounted to 753 nM. Regarding `CCc1c(NC(=O)c2cc(C(N)=O)nc3cc(F)ccc23)cnn1Cc1ccc(C#N)cc1` [Example 30, N^4-[1-(4-cyanobenzyl)-5-ethyl-1H-pyrazol-4-yl]-7-fluoroquinoline-2,4-dicarboxamide], the concentration for half-maximal inhibition (IC50) was 46 nM. As to `Cc1c(NC(=O)c2cc(C(N)=O)nc3cc(F)ccc23)cnn1Cc1ccc(C#N)cc1` [Example 24, N^4-[1-(4-cyanobenzyl)-5-methyl-1H-pyrazol-4-yl]-7-fluoroquinoline-2,4-dicarboxamide], the IC50 was found to be 7.1 nM. With `Cc1c(NC(=O)c2cc(C(F)(F)F)nc3cc(F)c(F)cc23)cnn1Cc1ccc(F)cc1` [Example 2, 6,7-difluoro-N-[1-(4-fluorobenzyl)-5-methyl-1H-pyrazol-4-yl]-2-(trifluoromethyl)quinoline-4-carboxamide], the IC50 was 124 nM. Take `Cc1c(NC(=O)c2cc(C(N)=O)nc3cc(F)c(Cl)cc23)cnn1Cc1ccc(C#N)cc1` [Example 25, 6-chloro-N^4-[1-(4-cyanobenzyl)-5-methyl-1H-pyrazol-4-yl]-7-fluoroquinoline-2,4-dicarboxamide]: the IC50 amounted to 6.5 nM.

On to `CC(C)c1c(NC(=O)c2cc(C(N)=O)nc3cc(F)ccc23)cnn1Cc1ccc(C#N)cc1` [Example 33, N^4-[1-(4-cyanobenzyl)-5-isopropyl-1H-pyrazol-4-yl]-7-fluoroquinoline-2,4-dicarboxamide], for which the IC50 stood at 940 nM.

Take `Cc1c(NC(=O)c2cc(C(F)(F)F)nc3ccc(Br)cc23)cnn1Cc1ccn(C)n1` [Example 44, 6-bromo-N-{5-methyl-1-[(1-methyl-1H-pyrazol-3-yl)methyl]-1H-pyrazol-4-yl}-2-(trifluoromethyl)quinoline-4-carboxamide]: the IC50 is 531 nM.

`O=C(Nc1cnn(Cc2ccc(F)cc2)c1C(=O)O)c1cc(C(F)(F)F)nc2ccc(Br)cc12` [Example 17, 4-({[6-bromo-2-(trifluoromethyl)quinolin-4-yl]carbonyl}amino)-1-(4-fluorobenzyl)-1H-pyrazole-5-carboxylic acid]: the IC50 was 10200 nM. Consider `CNC(=O)c1nc(Cn2ncc(NC(=O)c3cc(C(F)(F)F)nc4ccc(Br)cc34)c2C)no1` [Example 40, 6-bromo-N-(5-methyl-1-{[5-(methylcarbamoyl)-1,2,4-oxadiazol-3-yl]methyl}-1H-pyrazol-4-yl)-2-(trifluoromethyl)quinoline-4-carboxamide], for which the half-inhibitory concentration (IC50) turned out to be 456 nM. As for `COc1ccc(Cn2ncc(NC(=O)c3cc(C(F)(F)F)nc4ccc(Br)cc34)c2C)cc1` [Example 12, 6-bromo-N-[1-(4-methoxybenzyl)-5-methyl-1H-pyrazol-4-yl]-2-(trifluoromethyl)quinoline-4-carboxamide], the IC50 stood at 4 nM. In the case of `Cc1c(NC(=O)c2cc(C(N)=O)nc3ccccc23)cnn1Cc1ccncc1` [Example 29, N^4-[5-methyl-1-(pyridin-4-ylmethyl)-1H-pyrazol-4-yl]quinoline-2,4-dicarboxamide], the IC50 is 2150 nM. Take `COC(=O)c1c(NC(=O)c2cc(C(F)(F)F)nc3ccc(Br)cc23)cnn1Cc1ccc(C#N)cc1` [Example 19, methyl 4-({[6-bromo-2-(trifluoromethyl)quinolin-4-yl]carbonyl}amino)-1-(4-cyanobenzyl)-1H-pyrazole-5-carboxylate]: the IC50 amounted to 1070 nM. As for `CCS(=O)(=O)N1CCC(Cn2ncc(NC(=O)c3cc(C(N)=O)nc4ccccc34)c2C)CC1` [Example 43, N^4-(1-{[1-(ethylsulfonyl)piperidin-4-yl]methyl}-5-methyl-1H-pyrazol-4-yl)quinoline-2,4-dicarboxamide], the IC50 is 396 nM.
